In the supplement of paper PMC4976141:
± gives the uncertainty stated by the source.

Tests used:
COLO-205 [1] = assay: % viability under drug (72 h drug + 72 h recovery), miRNA mimic relative to NTC in DMSO; higher = more surviving cells; details: drug used in drug arm: AZ628 1 uM; treatment: drug
Protocol: (§1)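 26 miRNA mimics were transfected into 8 cancer cell lines in triplicate. 48 h post-transfection, cells were treated 72 h with DMSO or a line-specific drug, then recovered 72 h drug-free. Drugs: COLO-205 AZ628 1 uM, MKN-45 crizotinib 1 uM, NCI-H596 paclitaxel 6 uM, EVSA-T GDC-0980 2.5 uM, M14 AZ628 1 uM, HCC-1954 GDC-0980 2.5 uM, NCI-H441 carboplatin 2.5 uM, SKBr3 lapatinib 1 uM. Surviving cells are expressed as % of NTC-transfected cells in DMSO (the NTC drug arm itself is about 30-50%), mean +- SEM.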

MKN-45 [2] = assay: as above; details: drug used in drug arm: crizotinib 1 uM; treatment: drug
Protocol: as §1

M14 [3] = assay: as above; details: drug used in drug arm: AZ628 1 uM; treatment: drug
Protocol: as §1

EVSA-T [4] = assay: as above; details: drug used in drug arm: GDC-0980 2.5 uM; treatment: drug
Protocol: as §1

SK-BR-3 [5] = assay: as above; details: drug used in drug arm: lapatinib 1 uM; treatment: drug
Protocol: as §1

NCI-H441 [6] = assay: as above; details: drug used in drug arm: carboplatin 2.5 uM; treatment: drug
Protocol: as §1

HCC-1954 [7] = assay: as above; details: drug used in drug arm: GDC-0980 2.5 uM; treatment: drug
Protocol: as §1

NCI-H596 [8] = assay: as above; details: drug used in drug arm: paclitaxel 6 uM; treatment: drug
Protocol: as §1

COLO-205 [9] = assay: % viability in DMSO, miRNA mimic relative to NTC in DMSO; higher = less cytotoxic; details: drug used in drug arm: AZ628 1 uM; treatment: DMSO
Protocol: as §1

MKN-45 [10] = assay: as above; details: drug used in drug arm: crizotinib 1 uM; treatment: DMSO
Protocol: as §1

M14 [11] = assay: as above; details: drug used in drug arm: AZ628 1 uM; treatment: DMSO
Protocol: as §1

EVSA-T [12] = assay: as above; details: drug used in drug arm: GDC-0980 2.5 uM; treatment: DMSO
Protocol: as §1

SK-BR-3 [13] = assay: as above; details: drug used in drug arm: lapatinib 1 uM; treatment: DMSO
Protocol: as §1

NCI-H441 [14] = assay: as above; details: drug used in drug arm: carboplatin 2.5 uM; treatment: DMSO
Protocol: as §1

HCC-1954 [15] = assay: as above; details: drug used in drug arm: GDC-0980 2.5 uM; treatment: DMSO
Protocol: as §1

NCI-H596 [16] = assay: as above; details: drug used in drug arm: paclitaxel 6 uM; treatment: DMSO
Protocol: as §1

PC9 = assay: cell count fold change with erlotinib, miRNA mimic vs non-targeting control (log2 ratio); higher = more drug-tolerant survivors than NTC; details: erlotinib 1 µM; 72 h drug + 72 h drug-free recovery; perturbation: miRNA mimic

Sequence: GAGCCAGUUGGACAGGAGC
- % viability under drug (COLO-205 [1]): 38.9 ± 1%
- % viability under drug (MKN-45 [2]): 1.7 ± 0.21%
- % viability under drug (M14 [3]): 6.67 ± 1.9%
- % viability under drug (EVSA-T [4]): 0.0905 ± 0.0095%
- % viability under drug (SK-BR-3 [5]): 48.1 ± 28%
- % viability under drug (NCI-H441 [6]): 18.1 ± 1.8%
- % viability under drug (HCC-1954 [7]): 0.433 ± 0.085%
- % viability under drug (NCI-H596 [8]): 0.418 ± 0.032%
- % viability in DMSO (COLO-205 [9]): 101 ± 6.3%
- % viability in DMSO (MKN-45 [10]): 70.7 ± 8%
- % viability in DMSO (M14 [11]): 97.9 ± 14%
- % viability in DMSO (EVSA-T [12]): 28.9 ± 1%
- % viability in DMSO (SK-BR-3 [13]): 178 ± 130%
- % viability in DMSO (NCI-H441 [14]): 60.7 ± 17%
- % viability in DMSO (HCC-1954 [15]): 34 ± 6.2%
- % viability in DMSO (NCI-H596 [16]): 66.947 ± 0.021%
- cell count fold change with erlotinib (PC9): -4.82

Sequence: GCGAGGACCCCUCGGGGUCUGAC
- % viability under drug (COLO-205 [1]): 43 ± 1.1%
- % viability under drug (MKN-45 [2]): 1.84 ± 0.18%
- % viability under drug (M14 [3]): 8.07 ± 0.6%
- % viability under drug (EVSA-T [4]): 1.21 ± 0.28%
- % viability under drug (SK-BR-3 [5]): 16.6 ± 6.8%
- % viability under drug (NCI-H441 [6]): 7.07 ± 0.39%
- % viability under drug (HCC-1954 [7]): 2.54 ± 0.19%
- % viability under drug (NCI-H596 [8]): 3.656 ± 0.036%
- % viability in DMSO (COLO-205 [9]): 105.2 ± 0.58%
- % viability in DMSO (MKN-45 [10]): 53.2 ± 7%
- % viability in DMSO (M14 [11]): 43.3 ± 5.2%
- % viability in DMSO (EVSA-T [12]): 40.8 ± 0.66%
- % viability in DMSO (SK-BR-3 [13]): 48.4 ± 5%
- % viability in DMSO (NCI-H441 [14]): 21.6 ± 1.6%
- % viability in DMSO (HCC-1954 [15]): 56.4 ± 10%
- % viability in DMSO (NCI-H596 [16]): 76.8 ± 10%
- cell count fold change with erlotinib (PC9): 0.35

Sequence: GUCAUACACGGCUCUCCUCUCU
- % viability under drug (COLO-205 [1]): 33 ± 2.9%
- % viability under drug (MKN-45 [2]): 0.526 ± 0.15%
- % viability under drug (M14 [3]): 1.73 ± 0.53%
- % viability under drug (EVSA-T [4]): 0.124 ± 0.028%
- % viability under drug (SK-BR-3 [5]): 12.8 ± 1.4%
- % viability under drug (NCI-H441 [6]): 3.92 ± 0.51%
- % viability under drug (HCC-1954 [7]): 1.04 ± 0.13%
- % viability under drug (NCI-H596 [8]): 0.466 ± 0.077%
- % viability in DMSO (COLO-205 [9]): 106 ± 3.9%
- % viability in DMSO (MKN-45 [10]): 10.5 ± 0.39%
- % viability in DMSO (M14 [11]): 15.5 ± 2.3%
- % viability in DMSO (EVSA-T [12]): 3.87 ± 1.8%
- % viability in DMSO (SK-BR-3 [13]): 17.1 ± 4.5%
- % viability in DMSO (NCI-H441 [14]): 8.42 ± 0.15%
- % viability in DMSO (HCC-1954 [15]): 29.6 ± 4.2%
- % viability in DMSO (NCI-H596 [16]): 9.78 ± 0.74%
- cell count fold change with erlotinib (PC9): -5.7

Sequence: UAGGUAGUUUCAUGUUGUUGGG
- % viability under drug (COLO-205 [1]): 34.7 ± 0.96%
- % viability under drug (MKN-45 [2]): 1.52 ± 0.25%
- % viability under drug (M14 [3]): 6.29 ± 0.61%
- % viability under drug (EVSA-T [4]): 0.1635 ± 0.0015%
- % viability under drug (SK-BR-3 [5]): 16.1 ± 2.1%
- % viability under drug (NCI-H441 [6]): 6.39 ± 0.21%
- % viability under drug (HCC-1954 [7]): 1.26 ± 0.1%
- % viability under drug (NCI-H596 [8]): 1.48 ± 0.34%
- % viability in DMSO (COLO-205 [9]): 93.2 ± 4.5%
- % viability in DMSO (MKN-45 [10]): 49.8 ± 27%
- % viability in DMSO (M14 [11]): 69.5 ± 28%
- % viability in DMSO (EVSA-T [12]): 11.4 ± 8.3%
- % viability in DMSO (SK-BR-3 [13]): 39.6 ± 14%
- % viability in DMSO (NCI-H441 [14]): 23.3 ± 13%
- % viability in DMSO (HCC-1954 [15]): 57.1 ± 7.2%
- % viability in DMSO (NCI-H596 [16]): 18.4 ± 2.9%
- cell count fold change with erlotinib (PC9): -5.25

Sequence: UCUACAAAGGAAAGCGCUUUCU
- % viability under drug (COLO-205 [1]): 47.79 ± 0.091%
- % viability under drug (MKN-45 [2]): 1.63 ± 0.29%
- % viability under drug (M14 [3]): 6.38 ± 0.2%
- % viability under drug (EVSA-T [4]): 1.13 ± 0.19%
- % viability under drug (SK-BR-3 [5]): 26 ± 2.1%
- % viability under drug (NCI-H441 [6]): 12.8 ± 1.1%
- % viability under drug (HCC-1954 [7]): 2.02 ± 0.14%
- % viability under drug (NCI-H596 [8]): 2.12 ± 0.19%
- % viability in DMSO (COLO-205 [9]): 109 ± 3.9%
- % viability in DMSO (MKN-45 [10]): 48.8 ± 8.7%
- % viability in DMSO (M14 [11]): 63 ± 19%
- % viability in DMSO (EVSA-T [12]): 37.4 ± 6.7%
- % viability in DMSO (SK-BR-3 [13]): 49.1 ± 3.5%
- % viability in DMSO (NCI-H441 [14]): 41.8 ± 3.1%
- % viability in DMSO (HCC-1954 [15]): 68.8 ± 1.8%
- % viability in DMSO (NCI-H596 [16]): 80.5 ± 9.8%
- cell count fold change with erlotinib (PC9): 0.22

Sequence: UGUCAGUUUGUCAAAUACCCCA
- % viability under drug (COLO-205 [1]): 38 ± 0.5%
- % viability under drug (MKN-45 [2]): 2.37 ± 0.29%
- % viability under drug (M14 [3]): 16.4 ± 2.8%
- % viability under drug (EVSA-T [4]): 0.172 ± 0.0035%
- % viability under drug (SK-BR-3 [5]): 27.4 ± 1.9%
- % viability under drug (NCI-H441 [6]): 5.55 ± 0.62%
- % viability under drug (HCC-1954 [7]): 0.617 ± 0.0095%
- % viability under drug (NCI-H596 [8]): 0.42 ± 0.093%
- % viability in DMSO (COLO-205 [9]): 98.3 ± 4.3%
- % viability in DMSO (MKN-45 [10]): 142 ± 23%
- % viability in DMSO (M14 [11]): 129 ± 10%
- % viability in DMSO (EVSA-T [12]): 28 ± 2.1%
- % viability in DMSO (SK-BR-3 [13]): 104 ± 12%
- % viability in DMSO (NCI-H441 [14]): 27.3 ± 6.4%
- % viability in DMSO (HCC-1954 [15]): 31.9 ± 3.4%
- % viability in DMSO (NCI-H596 [16]): 22.8 ± 1.2%
- cell count fold change with erlotinib (PC9): -5.21
